Experimental data published in patent EP4678629A1, “IONIZABLE LIPID MOLECULE, PREPARATION METHOD THEREFOR AND USE THEREOF” (Maxirna (Shanghai) Pharmaceutical Co., Ltd., priority 2023, dated 2024).

Legend:
[1] = Size and polydispersity index (PDI) of the lipid nanoparticle by dynamic light scattering; format: physicochemical; details: LNP encapsulating eGFP mRNA, ionizable lipid/DOPE/cholesterol/DMG-PEG2000 50/10/48.25/1.25 mol%, N/P 12; for Particle size: in nm (unit assumed)
Method in brief: (§1)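 LNPs were made by microfluidic mixing of ionizable lipid/DOPE/cholesterol/DMG-PEG2000 (50/10/48.25/1.25 mol%) in ethanol with eGFP mRNA in 20 mM citrate pH 6.1, N/P 12, then ultrafiltered into DPBS and 0.2 µm filtered. Size and PDI by DLS at 173° backscatter; encapsulation by Ribogreen.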

mice = experiment: In vivo transfection with Fluc-mRNA lipid nanoparticle (LNP preparation), live imaging of fluorescence intensity; details: 0.5 mg/kg; for fluorescence intensity, intramuscular injection administration / fluorescence intensity / expression in the chest and abdomen: Fluc-mRNA LNP of Table 2 (DOPE); for fluorescence intensity: intravenous and intramuscular injection
Protocol: According to the method described in Example II , LNP lipid nanoparticles of Fluc-mRNA (Maxirna FLuc mRNA, 1 mg/mL), SM-102 (CAS number: 2089251-47-6, A.V.T (Shanghai) Pharmaceutical Co., Ltd.), and positive control 1 (US10195156B2, it was prepared according to the method described in the above embodiment, the main difference lay in replacing 2-((3-aminopropyl)amino)ethane-1-ol with 2-((2-aminoethyl)amino)ethane-1-ol, the structure was as shown in FIG. 1) were prepared respectively. Cholesterol (Chol), DSPC, DOPE, and DMG-PEG2000 were purchased from A.V.T (Shanghai) Pharmaceutical Co., Ltd. Mice were randomly selected, and the lipid nanoparticles were injected intravenously and intramuscularly (4 mice per group) at a dosage of 0.5 mg/kg. Tris and Fluc-mRNA were directly injected as controls. After 6 hours, 200 ul of 10 mg/ml D-luciferin potassium salt was respectively injected into each mouse through the tail vein. After 10 minutes, the mice were placed under a live imaging system to observe the total fluorescence intensity of each mouse and take photos for recording. After 24 hours, the mice were placed under the live imaging system to observe the total fluorescence intensity of each mouse and take photos for recording. Table 2: Preparation parameters of each LNP
(§2) LNP lipid nanoparticles of Fluc-mRNA were respectively prepared using the method described in Example II. Mice were randomly selected, and the lipid nanoparticles were injected intramuscularly (2 mice per group) at a dosage of 0.5 mg/kg. Tris was directly injected as a control. After 6 hours, 200 ul of 10 mg/ml D-luciferin potassium salt was respectively injected into each mouse through the tail vein. After 10 minutes, the mice were placed under a live imaging system to observe the total fluorescence intensity of each mouse and take photos for recording. After 24 hours, the mice were placed under the live imaging system to observe the total fluorescence intensity of each mouse and take photos for recording. Table 3: Preparation parameters of each LNP
as §2, with “II .” for “II.”, “(3” for “(2”, “4:” for “3:”

[2] = Encapsulation efficiency of the lipid nanoparticle (eGFP mRNA) by Ribogreen method; format: physicochemical; details: LNP encapsulating eGFP mRNA, ionizable lipid/DOPE/cholesterol/DMG-PEG2000 50/10/48.25/1.25 mol%, N/P 12
Method in brief: as §1

DC2.4 cells = experiment: In vitro transfection of cells with eGFP-mRNA lipid nanoparticle (LNP preparation), fluorescence imaging and flow cytometry; format: cell-based, mouse; details: DC2.4 cells, 200 ng of mRNA per well, after 24 hours; for Positive rate, %: eGFP positivity rate; for Cell viability, %: 1440 min
Method in brief: (§3)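 Mouse bone marrow-derived DC2.4 dendritic cells seeded at 2 × 10^5 cells/well in DMEM with 10% FBS, transfected with eGFP-mRNA LNPs the next day at 37 °C, 5% CO2. After 24 hours, viability, eGFP-positive rate and mean fluorescence intensity read by fluorescence imaging and flow cytometry.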

[3] = as above; format: cell-based, mouse; details: mouse, dc2.4 cells, 200 ng of mRNA per well, after 24 hours; read-out: Cell viability, %
Method in brief: as §3

[4] = Fluc-mRNA LNP of Table 3 (DSPC), intramuscular, 6 and 24 hours
[5] = Fluc-mRNA LNP of Table 4 (DSPC), intramuscular, 6 and 24 hours

PDI [1] | Particle size [1] | Encapsulation rate, % [2] [%] | SMILES | whole-body expression (mice; [4]) | Positive rate, % (DC2.4 cells) [%] | viability at 24 h [3] [%] | fluorescence intensity, intramuscular injection administration (mice; intramuscular) | fluorescence intensity (mice; 6 and 24 hours) | expression in the chest and abdomen (mice; intramuscular) | Cell viability, % (DC2.4 cells) [%] | injection site (mice; [5]) | whole-body expression (mice; [5])
0.18 | 59.34 | 96.32 | CCCCCCCCCCCOC(=O)CCCCCCCN(CCO)CCCN(CCCCCCCC(=O)OCCCCCCCCCCC)CCCCCCCC(=O)OCCCCCCCCCCC [Example 1, Diundecyl 8,8'-((3-((2-hydroxyethyl)(8-oxo-8-(undecyloxy)octyl)amino)propyl)azanediyl)dioctanoate] | even better than SM-102 | 91.23 | 92 | – | – | – | – | – | –
0.17 | 97.96 | 90.99 | CCCCCCCCCCCOC(=O)CCCCCN(CCO)CCCN(CCCCCC(=O)OCCCCCCCCCCC)CCCCCC(=O)OCCCCCCCCCCC [Example 11, Diundecyl 6,6'-((3-((2-hydroxyethyl)(6-oxo-6-(undecyloxy)hexyl)amino)propyl)azanediyl)dihexanoate] | – | 95.68 | 84.3 | still maintain high fluorescence intensity | stronger than that of positive control 1 and comparable to SM-102 | – | – | – | –
0.22 | 88.51 | 90.54 | CCCCCCCCCCCOC(=O)CCCN(CCO)CCCN(CCCC(=O)OCCCCCCCCCCC)CCCC(=O)OCCCCCCCCCCC [Example 12, Diundecyl 4,4'-((3-((2-hydroxyethyl)(4-oxo-4-(undecyloxy)butyl)amino)propyl)azanediyl)dibutanoate] | even better than SM-102 | 97.78 | 81.2 | still maintain high fluorescence intensity | stronger than that of positive control 1 and comparable to SM-102 | much lower than that of SM-102 | – | – | –
– | – | – | CCCCCC/C=C\COC(=O)CCCCCCCN(CCCCCCCC(=O)OC/C=C\CCCCCC)CCCN(CCCCCCCC(=O)OC/C=C\CCCCCC)CCCCCCCC(=O)OC/C=C\CCCCCC [Example 21, Tetra((Z)-non-2-en-1-yl)8,8',8",8‴-(propane-1,3-diyldi(azanetriyl))tetraoctanoate] | – | – | – | still maintain high fluorescence intensity | stronger than that of positive control 1 and comparable to SM-102 | much lower than that of SM-102 | – | – | –
– | 99.10 | 99.10 | CCCCC/C=C\C/C=C\CCCCCCCCOC(=O)CCCN(CCCO)CCCN(CCCC(=O)OCCCCCCCC/C=C\C/C=C\CCCCC)CCCC(=O)OCCCCCCCC/C=C\C/C=C\CCCCC [Example 81, Di((9Z,12Z)-octadeca-9,12-dien-1-yl)4,4'-((3-((3-hydroxypropyl)(4-(((9Z,12Z)-octadeca-9,12-dien-1-yl)oxo)-4-oxobutyl)amino)propyl)azanediyl)dibutanoate] | even better than SM-102 | 93.39 | – | – | – | – | 76.4 | – | –
0.09 | 96.38 | 94.22 | CCCCC/C=C\C/C=C\CCCCCCCCOC(=O)CCCN(CCCO)CCCCN(CCCC(=O)OCCCCCCCC/C=C\C/C=C\CCCCC)CCCC(=O)OCCCCCCCC/C=C\C/C=C\CCCCC [Example 89] | – | 92.26 | – | – | – | – | 94.0 | superior to those of positive control 1 and SM-102 | superior to those of positive control 1 and SM-102
